What was measured:
[1] = tested on: normal NK cells expanded with K562-aAPC; assay: percent inhibition of viability; higher = more inhibition; conditions: 72 h, IL-2 2.5 ng/mL
Protocol: (§1)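 Drug sensitivity and resistance testing on K562-aAPC-expanded normal NK cells: 5 concentrations (10-fold steps over a 10,000-fold range), 72 h at 37 °C, viability by CellTiter-Glo normalised to DMSO and benzethonium chloride controls; DSS from the fitted curve.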

[2] = tested on: DERL-7 (IL-2 2.5 ng/mL); assay: as above; conditions: 72 h
[3] = tested on: IMC-1 (IL-2 20 ng/mL); assay: as above; conditions: 72 h
[4] = tested on: KAI3 (IL-2 2.5 ng/mL); assay: as above; conditions: 72 h
[5] = tested on: KHYG-1 (IL-2 2.5 ng/mL); assay: as above; conditions: 72 h
[6] = tested on: NK-92 (IL-2 2.5 ng/mL); assay: as above; conditions: 72 h
[7] = tested on: NK-YS (IL-2 2.5 ng/mL); assay: as above; conditions: 72 h
[8] = tested on: NKL (IL-2 2.5 ng/mL); assay: as above; conditions: 72 h
[9] = tested on: SNK-6 (IL-2 2.5 ng/mL); assay: as above; conditions: 72 h
[10] = tested on: YT (IL-2 2.5 ng/mL); assay: as above; conditions: 72 h
[11] = tested on: normal primary NK cells, pool 1 (3 donors) (IL-2 2.5 ng/mL); assay: as above; conditions: 72 h
[12] = tested on: normal primary NK cells, pool 1 (3 donors), resting (IL-2 0 ng/mL); assay: as above; conditions: 72 h
[13] = tested on: normal primary NK cells, pool 2 (3 donors) (IL-2 2.5 ng/mL); assay: as above; conditions: 72 h
[14] = tested on: normal primary NK cells, pool 3 (3 donors) (IL-2 2.5 ng/mL); assay: as above; conditions: 72 h
[15] = tested on: normal NK cells expanded with K562-aAPC; assay: drug sensitivity score (DSS) (DSS units); higher = more sensitive; extreme values may be limits of the assay; conditions: 72 h; IL-2 2.5 ng/mL
Protocol: as §1

[16] = tested on: DERL-7 (IL-2 2.5 ng/mL); assay: as above; conditions: 72 h
[17] = tested on: IMC-1 (IL-2 20 ng/mL); assay: as above; conditions: 72 h
[18] = tested on: KAI3 (IL-2 2.5 ng/mL); assay: as above; conditions: 72 h
[19] = tested on: KHYG-1 (IL-2 2.5 ng/mL); assay: as above; conditions: 72 h
[20] = tested on: NK-92 (IL-2 2.5 ng/mL); assay: as above; conditions: 72 h
[21] = tested on: NK-YS (IL-2 2.5 ng/mL); assay: as above; conditions: 72 h
[22] = tested on: NKL (IL-2 2.5 ng/mL); assay: as above; conditions: 72 h
[23] = tested on: SNK-6 (IL-2 2.5 ng/mL); assay: as above; conditions: 72 h
[24] = tested on: YT (IL-2 2.5 ng/mL); assay: as above; conditions: 72 h
[25] = tested on: normal primary NK cells, pool 1 (3 donors) (IL-2 2.5 ng/mL); assay: as above; conditions: 72 h
[26] = tested on: normal primary NK cells, pool 1 (3 donors), resting (IL-2 0 ng/mL); assay: as above; conditions: 72 h
[27] = tested on: normal primary NK cells, pool 2 (3 donors) (IL-2 2.5 ng/mL); assay: as above; conditions: 72 h
[28] = tested on: normal primary NK cells, pool 3 (3 donors) (IL-2 2.5 ng/mL); assay: as above; conditions: 72 h

CS(=O)(=O)c1ccc(C2=C(c3ccccc3)C(=O)OC2)cc1 [Rofecoxib] (max concentration tested 10000 nM)
percent inhibition of viability [%]
Conditions | 1 nM | 10 nM | 100 nM | 1000 nM | 10000 nM
[1] | 10.3 | 5.54 | 3.01 | 2.73 | 3.42
[2] | 6.85 | -1.97 | -3.99 | 2.79 | 0.07
[3] | 2.54 | 0.06 | 3 | -1.23 | 3.31
[4] | 8.75 | 4.53 | 5.34 | 3.57 | -3.77
[5] | 0.01 | 1.72 | 2.69 | 2.11 | 2.37
[6] | 11.4 | -0.5 | -4.39 | -1.55 | -5.21
[7] | 3.55 | -3.6 | -2.98 | 3.34 | -0.78
[8] | 11.4 | 9.36 | 8.93 | 4.19 | 9.11
[9] | 8.2 | 18.3 | 4.94 | 9.79 | 3.14
[10] | 5.17 | 5.42 | 4.83 | 4.08 | 6.74
[11] | -5.06 | -9.08 | -8.33 | 2.49 | 0.6
[12] | -13.7 | -25.3 | -34.2 | -6.69 | -25.9
[13] | -7.81 | 1.86 | -6.15 | -8.51 | -5.43
[14] | -7.45 | -5.99 | -3.42 | -7.23 | -12.4

Conditions | drug sensitivity score
[15] | 0
[16] | 0
[17] | 0
[18] | 0
[19] | 0
[20] | 0
[21] | 0
[22] | 0
[23] | 0
[24] | 0
[25] | 0
[26] | 0
[27] | 0
[28] | 0

CN(C)C[C@@H]1CCn2cc(c3ccccc32)C2=C(C(=O)NC2=O)c2cn(c3ccccc23)CCO1 [Ruboxistaurin] (max concentration tested 10000 nM)
percent inhibition of viability [%]
Conditions | 1 nM | 10 nM | 100 nM | 1000 nM | 10000 nM
[1] | -0.21 | -2.52 | 9.41 | 31.6 | 99.7
[2] | -1.56 | 1.57 | 18.1 | 40.6 | 99.9
[3] | -5.42 | -4.44 | -4.88 | -32.9 | 100
[4] | 0.82 | 1.03 | 11.8 | 32 | 93.8
[5] | 1.18 | 0.63 | 1.33 | 34 | 98.9
[6] | -3.12 | -11.3 | -3.13 | 2.96 | 98.9
[7] | 0.95 | -3.62 | 0.25 | 24.6 | 97.6
[8] | -0.55 | -7.15 | 3.58 | 36.2 | 93.1
[9] | -9.54 | 1.49 | -3.03 | 4.61 | 99.9
[10] | 0.39 | 0.99 | -3.02 | 5.34 | 96
[11] | -7.03 | -9.34 | 0.45 | 29 | 99.8
[12] | -16.4 | -10.1 | -8.8 | 45.3 | 99.1
[13] | -17.6 | -5.86 | -4.21 | 13.1 | 100
[14] | -10.5 | -8.66 | 0.81 | 14.8 | 99.8

Conditions | drug sensitivity score
[15] | 9.52
[16] | 10.5
[17] | 4.21
[18] | 8.93
[19] | 10.2
[20] | 5.89
[21] | 9.16
[22] | 9.73
[23] | 6.19
[24] | 6.1
[25] | 9.78
[26] | 11.2
[27] | 7.72
[28] | 7.99
